Values joined by “and” are separate entries in the source; they are usually repeats but may differ in a detail not shown here. Equal entries are not always repeated. Toxic doses and inconclusive results are not listed. The calls were made as follows: active = survival T/C of 150% or more; inactive = T/C below 125% in these data.
Test system: CD2F1 mice, L1210 leukemia ip, survival T/C
Assay: NCI In Vivo Anticancer Drug Screen. Data for tumor model L1210 Leukemia (intraperitoneal) in CD2F1 (CDF1) mice
Conditions: higher = longer survival
How it was run: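 Each value reflects a quotient of treated over vehicle control outcomes in mice with a transplanted tumor.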

[1] = endpoint: mean survival time, dose: 100.0 mg/kg/injection, schedule: Q01DX001 (ip), vehicle: saline
[2] = endpoint: mean survival time, dose: 200.0 mg/kg/injection, schedule: Q01DX001 (ip), vehicle: saline
[3] = endpoint: mean survival time, dose: 400.0 mg/kg/injection, schedule: Q01DX001 (ip), vehicle: saline
[4] = endpoint: mean survival time, dose: 100.0 mg/kg/injection, schedule: Q04DX003 (ip), vehicle: saline with Tween-80
[5] = endpoint: mean survival time, dose: 200.0 mg/kg/injection, schedule: Q04DX003 (ip), vehicle: saline with Tween-80
[6] = endpoint: mean survival time, dose: 400.0 mg/kg/injection, schedule: Q04DX003 (ip), vehicle: saline with Tween-80
[7] = endpoint: mean survival time, dose: 100.0 mg/kg/injection, schedule: Q01DX001 (ip), vehicle: saline with Tween-80
[8] = endpoint: mean survival time, dose: 100.0 mg/kg/injection, schedule: Q01DX009 (ip), vehicle: saline with Tween-80
[9] = endpoint: mean survival time, dose: 200.0 mg/kg/injection, schedule: Q01DX001 (ip), vehicle: saline with Tween-80
[10] = endpoint: mean survival time, dose: 200.0 mg/kg/injection, schedule: Q01DX009 (ip), vehicle: saline with Tween-80
[11] = endpoint: mean survival time, dose: 400.0 mg/kg/injection, schedule: Q01DX001 (ip), vehicle: saline with Tween-80
[12] = endpoint: mean survival time, dose: 400.0 mg/kg/injection, schedule: Q01DX009 (ip), vehicle: saline with Tween-80
[13] = endpoint: mean survival time, dose: 25.0 mg/kg/injection, schedule: Q01DX009 (ip), vehicle: saline with Tween-80
[14] = endpoint: mean survival time, dose: 50.0 mg/kg/injection, schedule: Q01DX009 (ip), vehicle: saline with Tween-80

Measured: T/C

O=C1[O][Hg][c]2cc([N+](=O)[O-])cc3cccc1c23.O=C1[O][Hg][c]2cccc3cc([N+](=O)[O-])cc1c23
inactive: [1] 94 % of control | [2] 94 % of control | [3] 94 % of control

CCOCCO
inactive: endpoint: mean survival time, dose: 5.0 mg/kg/injection, schedule: Q01DX001 (ip), vehicle: saline sonified 103 % of control | endpoint: mean survival time, dose: 10.0 mg/kg/injection, schedule: Q01DX001 (ip), vehicle: saline sonified 101 % of control | endpoint: mean survival time, dose: 20.0 mg/kg/injection, schedule: Q01DX001 (ip), vehicle: saline sonified 101 % of control

O=C(NCc1ccccc1)C1C2CCC(C2)C1C(=O)NCc1ccccc1 (centres undefined)
inactive: [4] 102 % of control | [5] 102 % of control | [6] 98 % of control

OC(O)(C(F)(F)F)C(F)(F)F
inactive: endpoint: mean survival time, dose: 50.0 mg/kg/injection, schedule: Q01DX005 (ip), vehicle: saline 103 % of control | endpoint: mean survival time, dose: 100.0 mg/kg/injection, schedule: Q01DX005 (ip), vehicle: saline 91 % of control | endpoint: mean survival time, dose: 100.0 mg/kg/injection, schedule: Q04DX002 (ip), vehicle: saline 103 % of control | endpoint: mean survival time, dose: 200.0 mg/kg/injection, schedule: Q04DX002 (ip), vehicle: saline 109 % of control

O=C(O)C1C2C=CC(C2)C1C(=O)O (centres undefined)
inactive: [4] 97 % of control | [5] 92 % of control | [6] 98 % of control

CC(=O)NC(CO)C(O)c1ccc(N)cc1 (centres undefined)
inactive: [7] 97 % of control | [8] 102 % of control | [9] 101 % of control | [10] 96 % of control | [11] 104 % of control | [12] 96 % of control

Cn1c(=O)[nH]c(=O)c2cc(Cl)ccc21
inactive: endpoint: mean survival time, dose: 100.0 mg/kg/injection, schedule: Q04DX002 (ip), vehicle: saline with Tween-80 101 % of control | endpoint: mean survival time, dose: 200.0 mg/kg/injection, schedule: Q04DX002 (ip), vehicle: saline with Tween-80 106 % of control | endpoint: mean survival time, dose: 400.0 mg/kg/injection, schedule: Q04DX002 (ip), vehicle: saline with Tween-80 121 % of control

CC(Cc1ccccc1)NC(N)=O (centres undefined)
inactive: endpoint: mean survival time, dose: 12.5 mg/kg/injection, schedule: Q01DX009 (ip), vehicle: saline with Tween-80 100 % of control | [13] 97 % of control | [14] 92 % of control

O=NC1CC=CC1Cl (centres undefined)
inactive: [1] 96 % of control and 98 % of control | [2] 107 % of control and 102 % of control | [3] 101 % of control and 98 % of control

CN1COc2cc3c(cc2C1)OCN(C)C3
inactive: [7] 100 % of control | [9] 100 % of control

CN(C)CC1CCCCCC(CN(C)C)C1=O (centres undefined)
inactive: endpoint: mean survival time, dose: 75.0 mg/kg/injection, schedule: Q01DX001 (ip), vehicle: other 102 % of control | endpoint: mean survival time, dose: 150.0 mg/kg/injection, schedule: Q01DX001 (ip), vehicle: other 106 % of control

CC(=O)Nc1c[n+]([O-])cc2ccccc12
inactive: [8] 105 % of control | [4] 94 % of control | [10] 98 % of control | [5] 96 % of control | [12] 100 % of control | [6] 94 % of control

ClCc1c2c(cc3c1CCCC3)CCCC2
inactive: [4] 105 % of control | [5] 93 % of control

CSc1nc2cc(S(=O)(=O)O)ccc2s1
inactive: endpoint: mean survival time, dose: 100.0 mg/kg/injection, schedule: Q04DX003 (ip), vehicle: saline sonified 103 % of control | endpoint: mean survival time, dose: 200.0 mg/kg/injection, schedule: Q04DX003 (ip), vehicle: saline sonified 97 % of control | endpoint: mean survival time, dose: 400.0 mg/kg/injection, schedule: Q04DX003 (ip), vehicle: saline sonified 89 % of control

CC(NC(=O)C(C)(Br)C1CCCCC1)c1ccccc1 (centres undefined)
inactive: [7] 87 % of control | [9] 91 % of control

O=C(OCC1OC(n2cnc3c(=O)[nH][nH]c(=O)c32)C(OC(=O)c2ccccc2)C1OC(=O)c1ccccc1)c1ccccc1 (centres undefined)
inactive: endpoint: median survival time, dose: 8.25 mg/kg/injection, schedule: Q01DX005 (ip), vehicle: Klucel (hydroxypropylcellulose) (HPC) 104 % of control | endpoint: median survival time, dose: 16.5 mg/kg/injection, schedule: Q01DX005 (ip), vehicle: Klucel (hydroxypropylcellulose) (HPC) 98 % of control | endpoint: median survival time, dose: 33.0 mg/kg/injection, schedule: Q01DX005 (ip), vehicle: Klucel (hydroxypropylcellulose) (HPC) 97 % of control | endpoint: median survival time, dose: 66.0 mg/kg/injection, schedule: Q01DX005 (ip), vehicle: Klucel (hydroxypropylcellulose) (HPC) 101 % of control | endpoint: median survival time, dose: 132.0 mg/kg/injection, schedule: Q01DX005 (ip), vehicle: Klucel (hydroxypropylcellulose) (HPC) 102 % of control

CC(C)(C)C1(C#N)C(=O)C2CCCCC21 (centres undefined)
inactive: endpoint: mean survival time, dose: 12.5 mg/kg/injection, schedule: Q04DX002 (ip), vehicle: saline with Tween-80 105 % of control | endpoint: mean survival time, dose: 25.0 mg/kg/injection, schedule: Q04DX002 (ip), vehicle: saline with Tween-80 97 % of control | endpoint: mean survival time, dose: 50.0 mg/kg/injection, schedule: Q04DX002 (ip), vehicle: saline with Tween-80 94 % of control

COc1oc(C2C/C(=C/C(C)=C/C(C)=C/C(C)=C/c3ccc([N+](=O)[O-])cc3)CO2)c(C)c(=O)c1C (centres undefined)
inactive: endpoint: median survival time, dose: 0.25 mg/kg/injection, schedule: Q01DX009 (ip), vehicle: saline 104 % of control and 108 % of control | endpoint: median survival time, dose: 0.5 mg/kg/injection, schedule: Q01DX009 (ip), vehicle: saline 118 % of control and 124 % of control and 112 % of control | endpoint: median survival time, dose: 1.0 mg/kg/injection, schedule: Q01DX009 (ip), vehicle: saline 118 % of control and 124 % of control | endpoint: median survival time, dose: 2.0 mg/kg/injection, schedule: Q01DX009 (ip), vehicle: saline 120 % of control | endpoint: median survival time, dose: 4.0 mg/kg/injection, schedule: Q01DX009 (ip), vehicle: saline 103 % of control

CCC(O)C[As](=O)(O)c1cccc(Cl)c1 (centres undefined)
inactive: endpoint: mean survival time, dose: 0.39 mg/kg/injection, schedule: Q01DX009 (ip), vehicle: saline 95 % of control | endpoint: mean survival time, dose: 0.78 mg/kg/injection, schedule: Q01DX009 (ip), vehicle: saline 97 % of control | endpoint: mean survival time, dose: 1.56 mg/kg/injection, schedule: Q01DX009 (ip), vehicle: saline 103 % of control | endpoint: mean survival time, dose: 3.13 mg/kg/injection, schedule: Q01DX009 (ip), vehicle: saline 114 % of control

COc1ccc(C(O)c2ncccc2C)cc1OC (centres undefined)
inactive: endpoint: mean survival time, dose: 12.5 mg/kg/injection, schedule: Q01DX009 (ip), vehicle: water 100 % of control | endpoint: mean survival time, dose: 25.0 mg/kg/injection, schedule: Q01DX009 (ip), vehicle: water 98 % of control | endpoint: mean survival time, dose: 50.0 mg/kg/injection, schedule: Q01DX009 (ip), vehicle: water 104 % of control | endpoint: mean survival time, dose: 100.0 mg/kg/injection, schedule: Q01DX009 (ip), vehicle: water 100 % of control | endpoint: mean survival time, dose: 200.0 mg/kg/injection, schedule: Q01DX009 (ip), vehicle: water 95 % of control

CN1C(C(=O)O)CCC1C(=O)O (centres undefined)
inactive: endpoint: mean survival time, dose: 100.0 mg/kg/injection, schedule: Q04DX003 (ip), vehicle: saline 96 % of control | endpoint: mean survival time, dose: 200.0 mg/kg/injection, schedule: Q04DX003 (ip), vehicle: saline 98 % of control

O=Cc1ccc(C=O)cc1
inactive: [8] 104 % of control | [10] 98 % of control | [12] 96 % of control

CCCCNC1=CC(=O)c2ccccc2C1=O
inactive: [7] 103 % of control | [9] 95 % of control | [11] 92 % of control

COc1ccc(/C=c2\[nH]c(=O)/c(=C/c3ccc(OC)c(OC)c3)[nH]c2=O)cc1OC
inactive: [13] 95 % of control | [14] 103 % of control | [8] 90 % of control

CC[N+]1(C)CCC(CN2c3ccccc3Sc3ccccc32)C1 (centres undefined)
inactive: [8] 93 % of control | [10] 98 % of control | [12] 110 % of control

Source: PubChem BioAssay AID256 (DTP/NCI, 2004)
